From patent US20160038518A1, “METHODS FOR TREATING PSORIASIS AND VASCULAR INFLAMMATION” (VASCULAR BIOGENICS LTD., priority 2012, published 2016) come the findings set out here.

Series [1] concerns vascular inflammation of carotid arteries and ascending aorta in patients with moderate to severe plaque psoriasis. The experiment in a line: 18-FDG PET/CT sub-study of phase 2 trial: vascular inflammation as target to background ratio (TBR). The conditions noted are these: 12 weeks. Format: in vivo, human. An excerpt: This study was a sub-study of the above phase 2, randomized, double-blind, multicenter trial, of patients (aged 18-75) with moderate to severe plaque psoriasis, see also infra at Example 3. […] In addition, patients enrolled into the sub-study had to have the presence or history of one of the following: non-insulin dependent diabetes mellitus (NIDDM), peripheral vascular disease (PVD), smoker, hypertension, ischemic heart disease or cerebrovascular disease; obesity (BMI ≧25), hypercholesterolemia (LDL>160 mg/dL or taking anti-hyperlipidemia treatment), or family history of ischemic heart disease (in brother or father before age 55, in sister or mother before age 65) or at least 40 years of age with a history of psoriasis for at least 7 years. Patients were randomly assigned (1:1:1) to receive VB-201 20 mg, VB-201 80 mg or placebo for 12 weeks. The primary endpoint was the maximum TBR in the most diseased segment (MDS) of an index vessel at 12 weeks (percent change from baseline). The effect of treatment with 20 mg per day and 80 mg per day VB-201 on carotid arteries and ascending aorta inflammation was examined. Inflammation was measured by positron emission computed tomography (PET-CT) to quantify 18-fluorodeoxyglucose (18-FDG) uptake as a target to background ratio (TBR).
[…] imaging was performed following an overnight fast using a PET-CT scanner system with CT attenuation correction. 18-FDG was administered intravenously at a dose of 370 MBq and PET images were acquired approximately 90 minutes after injection. Baseline scans were evaluated and all inflammatory plaques in the left and right carotid arteries and ascending aorta were identified and totaled for each treatment group. PET scans were performed at Harvard Medical School and Massachusetts General Hospital, Boston, Mass., USA and at Translational and Molecular Imaging Institute and Department of Radiology, Mount Sinai School of Medicine, New York, N.Y., USA. All scans were analyzed by a central reader at the Mount Sinai center in New York City. The TBR was calculated from the ratio of the standard uptake values (SUV) of the target compared to background venous activity:
TBR (Target Background Ratio)=Target activity SUVTarget/SUV Background Venous Activity
The baseline and 12-week PET/CT datasets for each patient were structurally co-registered with each other, and FDG uptake was compared across each patient's images within pre-defined sections of the target vessels. For the aorta, measurements were made every 3 mm, starting 1 cm above the aortic valve annulus, continuing to the bottom of the aortic arch. For the right and left carotids, measurements were made every 3 mm, starting at the level of the carotid artery bifurcation, and continuing inferiorly 4 cm into the common carotid artery. Measurements were made in the axial plane by drawing a region of interest (ROI) around the artery wall and the maximum standardized uptake value (SUV) was recorded as the time- and dose-corrected tissue radioactivity divided by body weight. This represented the values for the target tissue. For the carotid arteries, the SUV Mean from the lumen of the jugular vein was used in at least 10 consecutive slices (at least 5 on each side). For the aorta, the background SUVMean from the atrium or SVC was used in at least 10 consecutive slices.
All statistical tests were two-sided with a significance level of 5%, unless specified otherwise, and were performed using SASS Version 9.2. Data was summarized using descriptive statistics (number of patients [N], mean, standard deviation [SD], median, minimum, and maximum).
Subjects were scanned by PET-CT to determine baseline 18-FDG uptake, and those with a TBR of at least 1.6 in either the carotid artery or the ascending aorta were selected. After screening and establishment of a baseline, eligible subjects were randomly assigned to receive 20 mg per day VB-201, 80 mg per day VB-201 or a daily placebo, for a period of 12 weeks. […]

How the values of series [2] were obtained:
Additional criteria included change in affected body surface area from baseline to week 12, change in PGA score from baseline to week 12, any change relative to baseline PASI score, and change in Patient Psoriasis Global Assessment (PtGA) score from baseline to week 12. Blood samples were taken at weeks 4, 8 and 12, in order to assess VB-201 pharmacokinetics, as well as plasma cytokine levels. Safety of VB-201 administration was evaluated by physical examination, incidence of adverse effects, vital signs, clinical chemistry, hematology, urinalysis and electrocardiograms.

The test system of series [3] is inflammation associated with the breast implants. Briefly: 18-FDG PET/CT of a patient with breast implants. To be noted: one patient, 20 mg/day, 12 weeks, FIG. 6. Format: in vivo, human. As for the experimental part: A patient with breast implants was treated with VD-201 at 20 mg/day for 12 weeks. PET-CT scans were done at baseline and at 12 weeks, using positron emission computed tomography (PET/CT) imaging quantifying 18-fluorodeoxyglucose (18-FDG) uptake as a TBR as described in Example 1.

Where [4] appears, read: 80 mg group, patients not taking concomitant statins.
Where [5] appears, read: patients taking statins (6 on 20 mg and 6 on 80 mg), p=0.01.

Each structure is given as a SMILES string. Where two headings read alike, the source gives them in different places.

Regarding `CCCCCCCCCCCCCCCCOC[C@H](COP(=O)([O-])OCC[N+](C)(C)C)OCCCCC(=O)O` [VB-201, 1-hexadecyl-2-(4′-carboxy)butyl-sn-glycero-3-phosphocholine], the “change from baseline in 18-FDG-PET MDS TBR of the index vessel” value in series [1] (20 mg/day, p=0.14) was −7.3%; in series [1] (80 mg/day, p=0.04), −12.7%. Further, the “mean change from baseline of the maximum TBR in the MDS in the index vessel” value is −0.39 in series [1] (setting [4]) and −0.74 in series [1] (setting [5]). Also, the “percent change from baseline of the maximum TBR in the MDS in the index vessel” value in series [1] (setting [4]) was −8.84%; in series [1] (setting [5]), −18.48%. Besides, the “dose response of TBR change across quartiles of VB-201 trough blood levels” value in series [1] (p=0.037, FIG. 5) was “A dose response was seen”. Also, the “reduction from baseline in vascular inflammation based on PET-CT measure” value in series [1] (VB-201 80 mg group, p=0.04) is listed as 12.7%; in series [1] (combined VB-201 treated group, p=0.01), 9.8%. Besides, the “inflammation of the ascending aorta (18-FDG uptake)” value in series [1] (one patient with breast implants, 20 mg/day, FIG. 6) is “inflammation of the aorta in the patient was also reduced”. For the same molecule, the entries for the “mean VB-201 trough level” value in series [2] (patients in quartile 1) and in series [2] (patients in quartile 4) were “about 0 ng/mL” and “about 3,640 ng/mL”, respectively. Moreover, the “inflammation surrounding the breast implants (18-FDG uptake)” value in series [3] is on record as “reduced inflammation surrounding the breast implants”.
